According to patent publication US10556865B2, “Synergistic herbicidal composition containing certain pyridine or pyrimidine carboxylic acids and certain cereal and rice herbicides” (Dow AgroSciences, LLC, priority 2007, dated 2020):
Where “and” joins values, the source holds several entries; their conditions need not be identical. Equal values may be shown once. Read-outs that look alike come from different tables or passages of the source.

Experiments:
Format in all cases: in vivo
[1] = system: Russian thistle (Salsola iberica L; SASKR); test: Postemergence herbicidal activity of mixtures in cereal crops (greenhouse, visual injury)
How it was run: (§1)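 Injury ratings (0–100%) taken 20–22 days post-spray versus solvent-blank controls. Treatment: 187 L/ha track spray, 2nd–3rd leaf plants, Compound A/B with second cereal herbicide.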

[2] = system: ivy-leaved speedwell (Veronica hederifolia L; VERHE); test: as above
How it was run: as §1

[3] = system: black mustard (Brassica nigra L; BRSNI); test: as above; settings: Brassica, post-emergence, read-out: BRSNI Ob
How it was run: as §1

[4] = system: rigid ryegrass (Lolium rigidum L; LOLRI); test: as above
How it was run: as §1

[5] = system: wild buckwheat (Polygonum convolvulus L; POLCO); test: as above
How it was run: as §1

[6] = system: cut-leaf geranium (Geranium dissectum L; GERDI); test: as above
How it was run: as §1

[7] = system: Digitaria sanguinalis (L.) SCOP. (DIGSA); test: Postemergence herbicidal mixtures for weed control in direct seeded rice (greenhouse, visual % injury)
[8] = system: lamb's-quarters (Chenopodium album L; CHEAL); test: Postemergence herbicidal activity of mixtures in cereal crops (greenhouse, visual injury)
How it was run: as §1

[9] = system: green foxtail (Setaria viridis L; SETVI); test: as above
How it was run: as §1

[10] = system: Ipomoea hederacea (L.) JACQ. (IPOHE); test: Postemergence herbicidal mixtures for weed control in direct seeded rice (greenhouse, visual % injury after 3 weeks); settings: for % Injury Ob: IPOHE
[11] = system: Polygonum pensylvanicum L. (POLPY); test: Postemergence herbicidal mixtures for weed control in direct seeded rice (greenhouse, visual % injury); settings: for % Injury Ob: POLPY

## COc1c(Cl)ccc(-c2cc(N)c(Cl)c(C(=O)O)n2)c1F [Compound A TEA, 4-amino-3-chloro-6-(4-chloro-2-fluoro-3-methoxyphenyl)pyridine-2-carboxylic acid]
[1]; 8.75 g/ha alone
  SASKR Ob: 80%
[1]; 17.5 g/ha alone
  SASKR Ob: 84%
[1]; 35 g/ha alone
  SASKR Ob: 87%
[1]; 70 g/ha alone
  SASKR Ob: 93%
[2]; 8.75 g/ha
  VERHE Ob: 10%
[2]; 17.5 g/ha
  VERHE Ob: 20%
[2]; 35 g/ha
  VERHE Ob: 50%
[2]; 70 g/ha
  VERHE Ob: 75%
[3]; 8.75 g/ha alone
  pest or weed control at 8.75 g/ha: 70%
[3]; 8.75 g/ha
  pest or weed control at 8.75 g/ha: 70%
[3]; 17.5 g/ha alone
  pest or weed control at 17.5 g/ha: 91%
[3]; 17.5 g/ha
  pest or weed control at 17.5 g/ha: 91%
[3]; 35 g/ha alone
  pest or weed control at 35 g/ha: 98%
[3]; 35 g/ha
  pest or weed control at 35 g/ha: 98%
[3]; 70 g/ha alone
  pest or weed control at 70 g/ha: 99%
[3]; 70 g/ha
  pest or weed control at 70 g/ha: 99%
[4]; 35 g/ha, Table 12
  LOLRI Ob: 0%
[4]; 35 g/ha, Table 13
  LOLRI: 0%
[4]; 35 g/ha, Table 17
  LOLRI Ob: 0%
[4]; 35 g/ha, Table 19
  LOLRI: 0%
[4]; 70 g/ha, Table 12
  LOLRI Ob: 0%
[4]; 70 g/ha, Table 13
  LOLRI: 0%
[4]; 70 g/ha, Table 17
  LOLRI Ob: 0%
[4]; 70 g/ha, Table 19
  LOLRI: 0%
[4]; 140 g/ha, Table 12
  LOLRI Ob: 10%
[4]; 140 g/ha, Table 13
  LOLRI: 10%
[4]; 140 g/ha, Table 17
  LOLRI Ob: 10%
[4]; 140 g/ha, Table 19
  LOLRI: 10%
[5]; 8.75 g/ha
  POLCO Ob: 90%
[5]; 8.75 g/ha alone
  POLCO Ob: 90% and 76%
[5]; 17.5 g/ha
  POLCO Ob: 93%
[5]; 17.5 g/ha alone
  POLCO Ob: 93% and 88%
[5]; 35 g/ha
  POLCO Ob: 98%
[5]; 35 g/ha alone
  POLCO Ob: 98% and 96%
[5]; 70 g/ha
  POLCO Ob: 99%
[5]; 70 g/ha alone
  POLCO Ob: 99%
[6]; 8.75 g/ha
  GERDI Ob: 50%
[6]; 8.75 g/ha alone
  GERDI Ob: 50% and 38%
[6]; 17.5 g/ha
  GERDI Ob: 55%
[6]; 17.5 g/ha alone
  GERDI Ob: 55% and 50%
[6]; 35 g/ha
  GERDI Ob: 65%
[6]; 35 g/ha alone
  GERDI Ob: 65% and 80%
[6]; 70 g/ha alone
  GERDI Ob: 78% and 85%

## COC(=O)c1nc(-c2ccc(Cl)c(OC)c2F)cc(N)c1Cl [Compound A Methyl, 4-amino-3-chloro-6-(4-chloro-2-fluoro-3-methoxyphenyl)pyridine-2-carboxylic acid methyl ester]
[7]; 8.75 g/ha alone
  % Injury Ob: 20%
[7]; 17.5 g/ha alone
  % Injury Ob: 50%
[8]; 17.5 g/ha
  CHEAL Ob: 90%
[8]; 35 g/ha
  CHEAL Ob: 90%
[8]; 70 g/ha
  CHEAL Ob: 95%
[9]; 17.5 g/ha, Table 1
  SETVI Ob: 70%
[9]; 35 g/ha, Table 1
  SETVI Ob: 75%
[9]; 35 g/ha, Table 7
  SETVI Ob: 77%
[9]; 70 g/ha, Table 1
  SETVI Ob: 80%
[9]; 70 g/ha, Table 7
  SETVI Ob: 82%
[9]; 140 g/ha, Table 7
  SETVI Ob: 91%
[10]; 4.38 g/ha alone
  % Injury Ob: 20%
[10]; 8.75 g/ha alone
  % Injury Ob: 40%
[10]; 17.5 g/ha alone
  % Injury Ob: 75%
[10]; alone 4.38 g/ha
  % Injury IPOHE Ob: 10% and 0%
[10]; alone 17.5 g/ha
  % Injury IPOHE Ob: 85% and 75%
[11]; 4.38 g/ha alone
  % Injury Ob: 10%
[11]; 8.75 g/ha alone
  % Injury Ob: 50%
[11]; alone 4.38 g/ha
  % Injury POLPY Ob: 50%
[11]; alone 8.75 g/ha
  % Injury POLPY Ob: 60%
